Values after ≈ are worked out from the molar mass of the structure shown. “Also recorded” adds a separate entry of the source. Where two headings read alike, the source gives them in different places.
Assays:
[1] = test system: orthopoxviruses (VAR-BSH, VAR-YAM, VAR-GAR, MPX, CPX, VAC); experiment: organism not typed; type: cell-based
[2] = test system: VAR-BSH (1975 Bangladesh isolate of VAR major); experiment: organism not typed; type: cell-based, variola major; conditions: for IC50: Vero, read-out: IC50 VAR-BSH Vero
[3] = test system: VAC Copenhagen; experiment: microbe, parasite or virus in culture; type: cell-based, vaccinia virus; conditions: for IC50: Orthopoxvirus vaccinia, Vero, read-out: IC50 VAC Vero
[4] = test system: VAC Copenhagen; experiment: microbe, parasite or virus in culture; type: cell-based, vaccinia virus; conditions: for IC50: Orthopoxvirus vaccinia, LLC-MK2, read-out: IC50 VAC LLC-MK2
[5] = test system: CPX Brighton; experiment: organism not typed; type: cell-based, cowpox; conditions: for IC50: Vero, read-out: IC50 CPX Vero
[6] = test system: VAR-YAM (1946 Japan Yamada isolate of VAR major); experiment: organism not typed; type: cell-based, variola major; conditions: for IC50: Vero, read-out: IC50 VAR-YAM Vero
[7] = test system: MPX Zaire (V79-1-005-Scab); experiment: organism not typed; type: cell-based, monkeypox; conditions: for IC50: Vero, read-out: IC50 MPX Vero
[8] = test system: MPX Zaire (V79-1-005-Scab); experiment: organism not typed; type: cell-based, monkeypox; conditions: for IC50: LLC-MK2, read-out: IC50 MPX LLC-MK2
[9] = test system: VAR-YAM (1946 Japan Yamada isolate of VAR major); experiment: organism not typed; type: cell-based, variola major; conditions: for IC50: LLC-MK2, read-out: IC50 VAR-YAM LLC-MK2
[10] = test system: VAR-BSH (1975 Bangladesh isolate of VAR major); experiment: organism not typed; type: cell-based, variola major; conditions: for IC50: LLC-MK2, read-out: IC50 VAR-BSH LLC-MK2
[11] = test system: Vero cells
[12] = test system: LLC-MK2 cells
[13] = test system: VAR-GAR (1966 Brazil Garcia isolate of VAR minor); experiment: organism not typed; type: cell-based, variola minor; conditions: for IC50: LLC-MK2, read-out: IC50 VAR-GAR LLC-MK2
[14] = test system: CPX Brighton; experiment: organism not typed; type: cell-based, cowpox; conditions: for IC50: LLC-MK2, read-out: IC50 CPX LLC-MK2
[15] = test system: VAR-GAR (1966 Brazil Garcia isolate of VAR minor); experiment: organism not typed; type: cell-based, variola minor; conditions: for IC50: Vero, read-out: IC50 VAR-GAR Vero
[16] = test system: VAC; conditions: cited from earlier work

Cc1c(O)cccc1C(=O)N[C@@H](CSc1ccccc1)[C@H](O)CN1C[C@H]2CCCC[C@H]2C[C@H]1C(=O)NC(C)(C)C [nelfinavir, Nelfinavir]
inhibitory activity against the orthopoxviruses tested (in words) [1]: inactive

Nc1nc(=O)c2ncn([C@@H]3C[C@H](CO)[C@H]3CO)c2[nH]1 [lobucavir, [1R(1α,2β,3α)]-9-[2,3-bis(hydroxymethyl)cyclobutyl]guanine]
inhibitory activity against the orthopoxviruses tested (in words) [1]: No other test compounds of this group (acyclovir, brovavir, lobucavir, didanosine, ddC, or d4C) showed any activity; also recorded: failed to inhibit orthopoxvirus replication

Cc1cn([C@H]2C=C[C@@H](CO)O2)c(=O)[nH]c1=O [stavudine]
inhibitory activity against the orthopoxviruses tested (in words) [1]: inactive

NC(=O)c1csc([C@@H]2O[C@H](CO)[C@@H](O)[C@H]2O)n1 [Tiazofurin, 2-β-D-ribofuranosylthiazole-4-carboxamide]
Therapeutic index (TI) VAR-BSH Vero [2]: 4.0 | IC50 [2]: 22.6 µg/mL (≈ 86.8 µM) | Therapeutic index (TI) VAC Vero [3]: 1.0 | IC50 [3]: > 100 µg/mL | Therapeutic index (TI) VAC LLC-MK2 [4]: 3.0 | IC50 [4]: 33.3 µg/mL (≈ 128 µM) | Therapeutic index (TI) CPX Vero [5]: 2.6 | IC50 [5]: 34.6 µg/mL (≈ 133 µM) | Therapeutic index (TI) VAR-YAM Vero [6]: 4.2 | IC50 [6]: 21.4 µg/mL (≈ 82.2 µM) | Therapeutic index (TI) MPX Vero [7]: 4.5 | IC50 [7]: 20 µg/mL (≈ 76.8 µM) | Therapeutic index (TI) MPX LLC-MK2 [8]: 19.2 | IC50 [8]: 5.2 µg/mL (≈ 20 µM) | IC50 ([1]; LLC-MK2, read-out: mean IC50 on LLC-MK2 cells): 10.8 ± 4.6 µg/mL (≈ 41.5 µM) | IC50 ([1]; Vero, read-out: mean IC50 on Vero cells): 36.4 ± 12.9 µg/mL (≈ 140 µM) | Therapeutic index (TI) VAR-YAM LLC-MK2 [9]: 25.6 | IC50 [9]: 3.9 µg/mL (≈ 15 µM) | Therapeutic index (TI) VAR-BSH LLC-MK2 [10]: 18.2 | IC50 [10]: 5.5 µg/mL (≈ 21.1 µM) | Cytotoxicity TC50 Vero ([11]; African green monkey): 90.0 µg/mL | Cytotoxicity TC50 LLC-MK2 ([12]; rhesus monkey): >100 µg/mL | Therapeutic index (TI) VAR-GAR LLC-MK2 [13]: 16.4 | IC50 [13]: 6.1 µg/mL (≈ 23.4 µM) | Therapeutic index (TI) CPX LLC-MK2 [14]: 9.1 | IC50 [14]: 11 µg/mL (≈ 42.3 µM) | Therapeutic index (TI) VAR-GAR Vero [15]: 4.5 | IC50 [15]: 19.8 µg/mL (≈ 76.1 µM)

O=C1Nc2ccc(Cl)cc2[C@@](C#CC2CC2)(C(F)(F)F)O1 [efavirenz]
inhibitory activity against the orthopoxviruses tested (in words) [1]: inactive

O=c1[nH]c(=O)n([C@@H]2O[C@H](CO)[C@@H](O)[C@@H]2O)cc1/C=C/Br [brovavir, Brovavir]
inhibitory activity against the orthopoxviruses tested (in words) [1]: No other test compounds of this group (acyclovir, brovavir, lobucavir, didanosine, ddC, or d4C) showed any activity; also recorded: failed to inhibit orthopoxvirus replication

Nc1c2ncn([C@@H]3O[C@H](CO)[C@@H](O)[C@H]3O)c2nc[n+]1[O-] [ANO, Adenosine N1-oxide]
inhibitory activity against the orthopoxviruses tested (in words) [1]: little activity | inhibition of VAC virus replication in vitro [16]: inhibits VAC virus replication in vitro

CC(C)(C)NC(=O)[C@@H]1C[C@@H]2CCCC[C@@H]2CN1C[C@@H](O)[C@H](Cc1ccccc1)NC(=O)[C@H](CC(N)=O)NC(=O)c1ccc2ccccc2n1 [saquinavir, Saquinavir]
inhibitory activity against the orthopoxviruses tested (in words) [1]: inactive

Nc1ccn([C@H]2CC[C@@H](CO)O2)c(=O)n1 [ddC, zalcitabine]
inhibitory activity against the orthopoxviruses tested (in words) [1]: No other test compounds of this group (acyclovir, brovavir, lobucavir, didanosine, ddC, or d4C) showed any activity

CN1C(=O)/C(=N\NC(N)=S)c2ccccc21 [Methisazone, methisazone]
Therapeutic index (TI) VAR-BSH Vero [2]: 3.0 | IC50 [2]: 34.6 µg/mL (≈ 148 µM) | Therapeutic index (TI) VAC Vero [3]: 2.2 | IC50 [3]: 45.8 µg/mL (≈ 195 µM) | Therapeutic index (TI) VAC LLC-MK2 [4]: 1.9 | IC50 [4]: 52 µg/mL (≈ 222 µM) | Therapeutic index (TI) CPX Vero [5]: 2.0 | IC50 [5]: 49.2 µg/mL (≈ 210 µM) | Therapeutic index (TI) VAR-YAM Vero [6]: 2.6 | IC50 [6]: 39 µg/mL (≈ 166 µM) | Therapeutic index (TI) MPX Vero [7]: 1.5 | IC50 [7]: 66.2 µg/mL (≈ 283 µM) | Therapeutic index (TI) MPX LLC-MK2 [8]: 1.2 | IC50 [8]: 80.4 µg/mL (≈ 343 µM) | Therapeutic index (TI) VAR-YAM LLC-MK2 [9]: 2.3 | IC50 [9]: 43.3 µg/mL (≈ 185 µM) | Therapeutic index (TI) VAR-BSH LLC-MK2 [10]: 2.4 | IC50 [10]: 41.2 µg/mL (≈ 176 µM) | Cytotoxicity TC50 Vero ([11]; African green monkey): >100 µg/mL | Cytotoxicity TC50 LLC-MK2 ([12]; rhesus monkey): >100 µg/mL | Therapeutic index (TI) VAR-GAR LLC-MK2 [13]: 2.3 | IC50 [13]: 44.1 µg/mL (≈ 188 µM) | Therapeutic index (TI) CPX LLC-MK2 [14]: 2.2 | IC50 [14]: 45.2 µg/mL (≈ 193 µM) | Therapeutic index (TI) VAR-GAR Vero [15]: 4.6 | IC50 [15]: 21.6 µg/mL (≈ 92.2 µM)

NC(=O)NO [Hydroxyurea, hydroxyurea]
inhibitory activity against the orthopoxviruses tested (in words) [1]: inactive

Nc1nc2c(ncn2COCCO)c(=O)[nH]1 [acyclovir, Acyclovir]
inhibitory activity against the orthopoxviruses tested (in words) [1]: No other test compounds of this group (acyclovir, brovavir, lobucavir, didanosine, ddC, or d4C) showed any activity; also recorded: failed to inhibit orthopoxvirus replication

Cc1cn([C@H]2C[C@H](N=[N+]=[N-])[C@@H](CO)O2)c(=O)[nH]c1=O [zidovudine]
inhibitory activity against the orthopoxviruses tested (in words) [1]: inactive

CC(C)c1nc(CN(C)C(=O)N[C@H](C(=O)N[C@@H](Cc2ccccc2)C[C@H](O)[C@H](Cc2ccccc2)NC(=O)OCc2cncs2)C(C)C)cs1 [ritonavir, Ritonavir]
inhibitory activity against the orthopoxviruses tested (in words) [1]: inactive

Nc1ccn([C@H]2C=C[C@@H](CO)O2)c(=O)n1 [d4C, 2′,3′-dideoxydidehydrocytidine]
inhibitory activity against the orthopoxviruses tested (in words) [1]: No other test compounds of this group (acyclovir, brovavir, lobucavir, didanosine, ddC, or d4C) showed any activity

O=c1[nH]cnc2c1ncn2[C@H]1CC[C@@H](CO)O1 [didanosine]
inhibitory activity against the orthopoxviruses tested (in words) [1]: No other test compounds of this group (acyclovir, brovavir, lobucavir, didanosine, ddC, or d4C) showed any activity

Nc1ncnc2c1ncn2C[C@@H](CO)OCP(=O)(O)O [HPMPA, (S)-9-(3-hydroxy-2-phosphonylmethoxypropyl)adenine]
IC50 VAR-BSH Vero [2]: 12.6 µg/mL (≈ 41.6 µM) | Therapeutic index (TI) VAR-BSH Vero [2]: 7.9 | IC50 VAC Vero [3]: 8.1 µg/mL (≈ 26.7 µM) | Therapeutic index (TI) VAC Vero [3]: 12.3 | IC50 VAC LLC-MK2 [4]: 8.0 µg/mL (≈ 26.4 µM) | Therapeutic index (TI) VAC LLC-MK2 [4]: 12.5 | IC50 CPX Vero [5]: 8.4 µg/mL (≈ 27.7 µM) | Therapeutic index (TI) CPX Vero [5]: 11.9 | IC50 VAR-YAM Vero [6]: 11.4 µg/mL (≈ 37.6 µM) | Therapeutic index (TI) VAR-YAM Vero [6]: 8.8 | IC50 MPX Vero [7]: 10.9 µg/mL (≈ 35.9 µM) | Therapeutic index (TI) MPX Vero [7]: 9.2 | IC50 MPX LLC-MK2 [8]: 9.2 µg/mL (≈ 30.3 µM) | Therapeutic index (TI) MPX LLC-MK2 [8]: 10.9 | TI against the panel of viruses [1]: 11.9 | mean IC50 against the panel of viruses [1]: 8.4 ± 0.67 µg/mL | IC50 VAR-YAM LLC-MK2 [9]: 6.8 µg/mL (≈ 22.4 µM) | Therapeutic index (TI) VAR-YAM LLC-MK2 [9]: 14.7 | IC50 VAR-BSH LLC-MK2 [10]: 6.1 µg/mL (≈ 20.1 µM) | Therapeutic index (TI) VAR-BSH LLC-MK2 [10]: 16.4 | Cytotoxicity TC50 Vero [11]: >100 µg/mL | Cytotoxicity TC50 LLC-MK2 [12]: >100 µg/mL | IC50 VAR-GAR LLC-MK2 [13]: 4.6 µg/mL (≈ 15.2 µM) | Therapeutic index (TI) VAR-GAR LLC-MK2 [13]: 21.7 | IC50 CPX LLC-MK2 [14]: 7.7 µg/mL (≈ 25.4 µM) | Therapeutic index (TI) CPX LLC-MK2 [14]: 13.0 | inhibition of VAC replication in vitro [16]: inhibit VAC replication in vitro | IC50 VAR-GAR Vero [15]: 6.6 µg/mL (≈ 21.8 µM) | Therapeutic index (TI) VAR-GAR Vero [15]: 15.2

Nc1ncnc2c1ncn2CCOCP(=O)(O)O [PMEA, 9-[2-(phosphonomethoxy)ethyl]adenine]
inhibitory activity against the orthopoxviruses tested (in words) [1]: Neither PMEA nor bis-POM-PMEA was effective
